Experimental data: PMC7824442, “In Escherichia coli Ammonia Inhibits Cytochrome bo3 But Activates Cytochrome bd-I” (Antioxidants, 2020)

Columns and labels:
cytochrome bd-I = molecular target: T1, cytochrome bd-I (Escherichia coli, UniProt P0ABJ9); experiment: UV-visible absorption titration of the isolated oxidized enzyme at pH […] (Soret region, […] nm); activation of O2 reductase activity also shown; format: binding
T1 construct: gene cydA; isolated cytochrome bd-I; with other subunits of the four-subunit cytochrome bd-I complex
T1 sequence (P0ABK2 whole entry): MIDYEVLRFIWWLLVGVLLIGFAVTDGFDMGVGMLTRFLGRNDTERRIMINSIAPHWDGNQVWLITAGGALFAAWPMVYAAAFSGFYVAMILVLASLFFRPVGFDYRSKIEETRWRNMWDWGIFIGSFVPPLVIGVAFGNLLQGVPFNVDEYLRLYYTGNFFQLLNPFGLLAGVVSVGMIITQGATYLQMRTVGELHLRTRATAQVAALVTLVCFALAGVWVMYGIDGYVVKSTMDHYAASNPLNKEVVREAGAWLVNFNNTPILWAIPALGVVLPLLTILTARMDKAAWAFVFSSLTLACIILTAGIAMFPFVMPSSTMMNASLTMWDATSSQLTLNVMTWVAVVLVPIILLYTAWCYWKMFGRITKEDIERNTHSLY
T1 sequence (P0ABJ9 whole entry): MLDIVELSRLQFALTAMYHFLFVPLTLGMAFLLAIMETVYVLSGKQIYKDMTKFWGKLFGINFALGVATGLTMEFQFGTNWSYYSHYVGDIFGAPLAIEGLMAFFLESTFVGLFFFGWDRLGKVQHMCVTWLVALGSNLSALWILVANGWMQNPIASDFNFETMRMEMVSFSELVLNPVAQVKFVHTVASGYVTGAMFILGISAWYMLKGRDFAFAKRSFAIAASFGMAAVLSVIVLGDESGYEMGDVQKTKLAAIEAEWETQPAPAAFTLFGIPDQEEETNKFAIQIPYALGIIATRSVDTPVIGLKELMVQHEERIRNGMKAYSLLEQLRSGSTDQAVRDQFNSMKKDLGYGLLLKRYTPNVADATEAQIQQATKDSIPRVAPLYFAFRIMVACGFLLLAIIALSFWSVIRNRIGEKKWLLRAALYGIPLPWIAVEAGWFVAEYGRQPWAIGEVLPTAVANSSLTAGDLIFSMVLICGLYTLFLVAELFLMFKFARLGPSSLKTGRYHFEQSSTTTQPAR

cytochrome bo3 = molecular target: T2, cytochrome bo3 (Escherichia coli, UniProt P0ABI8); experiment: UV-visible absorption titration of the isolated oxidized enzyme at pH […] (Soret region, […] nm); inhibition of O2 reductase activity also shown; format: binding
T2 construct: gene cyoB; isolated four-subunit His-tagged cytochrome bo3; with other subunits of the four-subunit cytochrome bo3 complex
T2 sequence (P0ABJ1 25-315): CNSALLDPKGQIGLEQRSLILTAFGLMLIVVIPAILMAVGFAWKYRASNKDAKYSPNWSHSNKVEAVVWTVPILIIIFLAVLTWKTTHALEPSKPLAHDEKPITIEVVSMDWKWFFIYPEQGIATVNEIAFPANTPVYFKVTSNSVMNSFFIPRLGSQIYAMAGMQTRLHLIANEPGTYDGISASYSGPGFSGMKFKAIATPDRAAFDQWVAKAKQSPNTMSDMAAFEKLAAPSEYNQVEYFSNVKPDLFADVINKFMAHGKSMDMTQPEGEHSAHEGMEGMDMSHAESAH
T2 sequence (P0ABJ6 whole entry, further chain): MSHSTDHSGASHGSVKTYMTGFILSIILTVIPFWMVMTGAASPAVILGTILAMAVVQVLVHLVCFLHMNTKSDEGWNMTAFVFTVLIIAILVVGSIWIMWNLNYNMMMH
T2 sequence (P0ABI8 whole entry): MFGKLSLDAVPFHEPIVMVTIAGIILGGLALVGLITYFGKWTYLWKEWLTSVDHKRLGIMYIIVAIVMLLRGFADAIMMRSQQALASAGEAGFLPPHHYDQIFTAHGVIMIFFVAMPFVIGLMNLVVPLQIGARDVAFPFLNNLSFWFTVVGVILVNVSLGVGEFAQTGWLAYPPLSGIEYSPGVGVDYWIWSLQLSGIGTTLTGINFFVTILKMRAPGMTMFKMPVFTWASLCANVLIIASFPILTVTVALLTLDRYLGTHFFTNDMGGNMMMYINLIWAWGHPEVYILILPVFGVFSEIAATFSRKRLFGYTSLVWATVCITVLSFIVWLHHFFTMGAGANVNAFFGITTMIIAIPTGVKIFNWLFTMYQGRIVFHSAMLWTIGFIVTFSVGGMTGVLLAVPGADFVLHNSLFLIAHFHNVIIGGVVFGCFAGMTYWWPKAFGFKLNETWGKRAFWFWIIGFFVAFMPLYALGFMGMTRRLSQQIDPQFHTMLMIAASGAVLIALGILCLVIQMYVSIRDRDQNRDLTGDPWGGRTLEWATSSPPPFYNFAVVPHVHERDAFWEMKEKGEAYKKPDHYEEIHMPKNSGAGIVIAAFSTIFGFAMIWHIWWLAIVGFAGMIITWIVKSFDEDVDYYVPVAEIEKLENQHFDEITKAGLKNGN
T2 sequence (P0ABJ3 whole entry, further chain): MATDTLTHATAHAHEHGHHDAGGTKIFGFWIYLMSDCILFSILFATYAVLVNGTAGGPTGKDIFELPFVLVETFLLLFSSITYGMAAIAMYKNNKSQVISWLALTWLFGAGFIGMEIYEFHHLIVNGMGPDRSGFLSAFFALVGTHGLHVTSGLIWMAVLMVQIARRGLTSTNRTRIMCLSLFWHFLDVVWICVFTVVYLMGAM

Which results are given for `N` [ammonia]?
Kd (cytochrome bd-I): 7.2 ± 1.4 mM; Kd (cytochrome bo3): 4.9 ± 0.5 mM
